The results in this text go back to ChEMBL document CHEMBL4823263, “Discovery of 2-(3-(3-Carbamoylpiperidin-1-yl)phenoxy)acetic Acid Derivatives as Novel Small-Molecule Inhibitors of the β-Catenin/B-Cell Lymphoma 9 Protein-Protein Interaction” (J Med Chem, 2021).

Data set [1] deals with beta-catenin-B-cell lymphoma 9 protein complex (Homo sapiens) (UniProt P35222+O00512). In words: Disruption of full length beta-catenin/BCL9 interaction in human HCT116 cells incubated for 24 hrs by co-immunoprecipitation assay. The format is cell-based. Particulars: HCT-116.
Data set [2] is described as follows: Downregulation of HPRT level in human SW480 cells at 3.3 uM incubated for […] by quantitative real-time PCR analysis relative to control. Format: ADME, cell-based. Particulars: sw480, 3.3 µM.
Data set [3] has as its system SW480. In words: Antiproliferative activity against human SW480 cells incubated for 72 hrs by MTS assay. The format is functional, cell-based. Particulars: SW480, 72 h. (In general: Tetrazolium dyes change colour on reduction, which living cells bring about.)
Data set [4] has as its target T1, beta-catenin-B-cell lymphoma 9 protein complex (Homo sapiens, UniProt P35222).
T1 sequence (P35222 whole entry): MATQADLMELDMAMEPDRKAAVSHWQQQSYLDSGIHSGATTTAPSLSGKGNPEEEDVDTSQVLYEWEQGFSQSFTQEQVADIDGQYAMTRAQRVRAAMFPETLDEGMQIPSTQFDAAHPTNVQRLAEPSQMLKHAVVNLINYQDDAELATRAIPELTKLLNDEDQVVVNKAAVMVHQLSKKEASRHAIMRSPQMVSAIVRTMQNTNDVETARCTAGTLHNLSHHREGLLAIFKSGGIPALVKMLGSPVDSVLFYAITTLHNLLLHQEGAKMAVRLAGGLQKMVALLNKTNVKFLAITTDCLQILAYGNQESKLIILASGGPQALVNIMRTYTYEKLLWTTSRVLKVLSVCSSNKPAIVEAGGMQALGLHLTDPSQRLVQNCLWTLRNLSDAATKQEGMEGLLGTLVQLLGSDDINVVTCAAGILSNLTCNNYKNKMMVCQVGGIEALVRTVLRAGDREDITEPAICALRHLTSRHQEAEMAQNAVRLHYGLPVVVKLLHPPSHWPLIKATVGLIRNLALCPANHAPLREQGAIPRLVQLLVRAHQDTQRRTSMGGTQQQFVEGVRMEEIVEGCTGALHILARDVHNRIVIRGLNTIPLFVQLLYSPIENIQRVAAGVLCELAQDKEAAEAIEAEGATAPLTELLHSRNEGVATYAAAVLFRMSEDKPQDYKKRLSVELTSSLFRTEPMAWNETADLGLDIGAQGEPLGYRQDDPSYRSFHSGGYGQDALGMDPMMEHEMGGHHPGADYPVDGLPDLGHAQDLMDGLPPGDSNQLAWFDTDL
T1 sequence (O00512 whole entry): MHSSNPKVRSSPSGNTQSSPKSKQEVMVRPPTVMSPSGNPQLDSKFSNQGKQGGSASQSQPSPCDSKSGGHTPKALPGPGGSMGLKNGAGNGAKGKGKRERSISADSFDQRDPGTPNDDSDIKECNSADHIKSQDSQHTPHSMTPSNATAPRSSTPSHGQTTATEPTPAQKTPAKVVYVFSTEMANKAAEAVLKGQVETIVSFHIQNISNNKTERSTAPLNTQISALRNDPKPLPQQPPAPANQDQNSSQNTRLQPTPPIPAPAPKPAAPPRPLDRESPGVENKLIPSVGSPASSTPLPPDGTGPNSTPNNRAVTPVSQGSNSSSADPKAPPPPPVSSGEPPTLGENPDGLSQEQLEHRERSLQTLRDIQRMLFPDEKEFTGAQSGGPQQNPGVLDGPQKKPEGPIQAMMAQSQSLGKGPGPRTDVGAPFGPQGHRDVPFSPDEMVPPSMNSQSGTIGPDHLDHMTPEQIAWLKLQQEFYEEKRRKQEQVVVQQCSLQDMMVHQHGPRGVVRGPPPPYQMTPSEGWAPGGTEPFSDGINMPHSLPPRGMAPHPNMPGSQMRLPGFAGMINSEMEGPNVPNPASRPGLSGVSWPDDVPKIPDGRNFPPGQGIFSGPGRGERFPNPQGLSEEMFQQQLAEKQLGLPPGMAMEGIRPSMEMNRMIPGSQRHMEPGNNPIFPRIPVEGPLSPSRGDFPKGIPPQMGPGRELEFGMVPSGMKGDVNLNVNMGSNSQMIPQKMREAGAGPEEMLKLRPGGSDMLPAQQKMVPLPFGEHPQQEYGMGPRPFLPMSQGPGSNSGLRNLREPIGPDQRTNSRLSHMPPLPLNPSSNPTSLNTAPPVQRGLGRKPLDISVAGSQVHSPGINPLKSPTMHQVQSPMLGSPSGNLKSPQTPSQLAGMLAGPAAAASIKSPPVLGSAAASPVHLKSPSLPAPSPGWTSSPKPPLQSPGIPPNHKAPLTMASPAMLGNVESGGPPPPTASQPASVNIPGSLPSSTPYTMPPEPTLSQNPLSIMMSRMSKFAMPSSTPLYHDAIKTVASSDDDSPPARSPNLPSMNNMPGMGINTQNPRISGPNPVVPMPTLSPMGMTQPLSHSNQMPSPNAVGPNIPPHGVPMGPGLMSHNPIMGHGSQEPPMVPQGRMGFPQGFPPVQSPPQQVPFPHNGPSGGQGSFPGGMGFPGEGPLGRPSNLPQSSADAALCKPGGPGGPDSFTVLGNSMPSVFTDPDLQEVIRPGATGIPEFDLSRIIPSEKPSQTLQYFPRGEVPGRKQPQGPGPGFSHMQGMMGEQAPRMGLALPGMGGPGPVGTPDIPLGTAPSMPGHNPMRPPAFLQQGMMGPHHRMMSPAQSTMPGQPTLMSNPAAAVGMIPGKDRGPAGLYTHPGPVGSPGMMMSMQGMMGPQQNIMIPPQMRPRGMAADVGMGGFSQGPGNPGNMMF
In words: Inhibition of full length C-terminal 6-His-tagged beta-catenin (1 to 781 residues) (unknown origin) expressed in Escherichia coli BL21 (DE3)-N-terminal biotinylated human BCL9 (350 to 375 residues) protein-protein interaction incubated for 1 hr by Alphascreen assay.

Data set [5] concerns SW480. In words: (§1) Inhibition of Wnt/beta-catenin transactivation signalling in human SW480 cells harboring wild type tcf4 binding sites incubated for 24 hrs by TOPFlash luciferase assay. The format is cell-based.
A short description of data set [6]: as §1. Format: cell-based.
Data set [7] concerns the target Protein Wnt-3a (Mus musculus) (UniProt P27467). Description: Inhibition of mouse wnt3a expressed in human MDA-MB-231 cells assessed as LEF1 level at 10 uM incubated for […] by quantitative real-time PCR analysis relative to control. Set-up: scale not given: the % may be the effect or the level left. The format is cell-based. In general terms: In qPCR the cycle at which signal appears reflects the starting amount.

A short description of data set [8]: Downregulation of HPRT in human MDA-MB-231 cells assessed as HPRT level at 3.3 uM incubated for […] by quantitative real-time PCR analysis relative to control. Format: ADME, cell-based. Particulars: mda-mb-231, 3.3 µM.
Data set [9] deals with Protein Wnt-3a (Mus musculus) (UniProt P27467). Description: Inhibition of mouse wnt3a expressed in human MDA-MB-231 cells assessed as Axin2 level at 10 uM incubated for […] by quantitative real-time PCR analysis relative to control. Set-up: scale not given: the % may be the effect or the level left. The format is cell-based.
The subject of data set [10] is SW480. In words: Inhibition of Wnt signalling in human SW480 cells assessed as reduction in cyclinD1 expression incubated for 24 hrs by Western blot analysis. The format is cell-based.
The target of data set [11] is Protein Wnt-3a (Homo sapiens) (UniProt P56704). Description: Inhibition of Wnt3a in human SW480 cells assessed as LEF1 level at 3.3 uM incubated for […] by quantitative real-time PCR analysis relative to control. The format is cell-based. More on the design: scale not given: the % may be the effect or the level left.
Sequence of Protein Wnt-3a (Homo sapiens) (P56704 whole entry): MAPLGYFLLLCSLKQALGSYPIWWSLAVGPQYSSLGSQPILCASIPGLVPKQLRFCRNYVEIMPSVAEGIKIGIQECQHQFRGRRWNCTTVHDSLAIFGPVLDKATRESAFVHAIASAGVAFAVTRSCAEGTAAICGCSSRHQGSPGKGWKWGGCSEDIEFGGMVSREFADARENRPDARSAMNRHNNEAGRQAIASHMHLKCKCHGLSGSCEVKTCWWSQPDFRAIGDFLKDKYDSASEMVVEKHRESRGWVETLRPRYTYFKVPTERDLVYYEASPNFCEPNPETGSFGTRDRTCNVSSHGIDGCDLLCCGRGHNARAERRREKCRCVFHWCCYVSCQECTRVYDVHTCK

Sequence of Protein Wnt-3a (Mus musculus) (P27467 whole entry): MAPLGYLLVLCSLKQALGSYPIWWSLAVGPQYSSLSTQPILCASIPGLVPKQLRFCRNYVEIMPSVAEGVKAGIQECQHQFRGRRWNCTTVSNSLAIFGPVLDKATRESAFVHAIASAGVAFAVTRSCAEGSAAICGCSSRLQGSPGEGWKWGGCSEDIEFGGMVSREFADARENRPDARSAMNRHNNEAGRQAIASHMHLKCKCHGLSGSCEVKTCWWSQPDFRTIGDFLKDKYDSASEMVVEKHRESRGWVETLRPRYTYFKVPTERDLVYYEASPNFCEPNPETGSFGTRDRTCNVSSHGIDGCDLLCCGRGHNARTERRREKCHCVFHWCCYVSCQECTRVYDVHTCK

`CC(C)(Oc1cccc(N2CCC[C@H](C(=O)N(Cc3ccc(-c4cccs4)cc3)C3CC3)C2)c1)C(=O)NS(=O)(=O)c1ccc(C#N)cc1`: the Activity entry was “Dose-Dependent Effect” in data set [1]; 98% in [2]; “Dose-Dependent Effect” with SW480 [5]; 81% in data set [7]; 102% in data set [8]; 57% in data set [9]. Also, the Activity result in the data set on SW480 [10] is “Dose-Dependent Effect”; in data set [11], 80%. Further, the figures for the IC50 (with SW480 [3]; in data set [4]; in [6]) were 16.3 µM, 4.4 µM and 6.6 µM, respectively.
